Usually IC50 stands for the concentration that inhibits the measured activity by half. Higher therefore signals lower potency. The EC50 is the concentration needed to bring the measured effect to its halfway point.

Assay [1] deals with Fibroblasts (primary human lung and dermal, HFL-1, 3T3 etc). Put plainly: Cell proliferation assay (BrdU incorporation). Type of assay: cell-based. The settings on record: HFL1, stimulant (LPA, TGFb, serum etc), 50% inhibition of the increase of BrdU incorporation. An outline of the steps: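 Serum-starved (24-48 h) fibroblasts pretreated with compound 0-30 min, then stimulated (LPA, TGFb, serum etc) for 16-24 h before BrdU, labelled a further 8 h. BrdU incorporation read by ELISA at 450 nm; IC50 taken as 50% inhibition of the stimulant-induced increase over unstimulated wells.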
(In general: Incorporation of labelled thymidine or its analogues reports DNA synthesis.)

Assay [2] concerns TGF-b induced Endothelin-1 production. The assay can be described thus: ET-1 assay: inhibitory effect on TGF-b induced endothelin-1 production. Type of assay: cell-based. The conditions noted are these: Homo sapiens, Fibroblast; fibroblasts, stimulant (TGFb, serum, LPA etc), ET-1 in media by ELISA, 4-parameter fit. An outline of the steps:
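Fibroblasts (primary human lung/dermal, HFL-1, 3T3) serum-starved 0-48 h, preincubated ~30 min with compound, then stimulated (TGFb, serum or LPA) for 16-48 h. Secreted ET-1 measured by ELISA; EC50 from 4-parameter logistic fit, with CC50 from ATPlite in the same wells.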

A value given as a limit tells only on which side of the number the result lay.

Compound `Cn1cc(-c2cn(-c3ccc(OC(F)(F)F)cc3)c(=O)cc2NCc2ccc(F)cc2F)cn1` [Compound 404] returned an IC50 in assay [1] below 50 µM. In assay [2], the EC50 is below 50 µM.
In turn, `Cn1cc(-c2cn(-c3ccc(OC(F)(F)F)cc3)c(=O)c3nccnc23)cn1` [Compound 47] gave a half-maximal inhibitory concentration (IC50) in assay [1] below 50 µM. The concentration giving a half-maximal response (EC50) in assay [2] was below 50 µM.
In turn, `CCOc1ccc(-n2cc(-c3ccc(F)cc3)c(C)cc2=O)c(C)c1` [Compound 175] displayed a 50% inhibitory concentration (IC50) in assay [1] below 50 µM. The compound further returned a concentration for a half-maximal effect (EC50) in assay [2] of 50 to 200 µM.
As to `Cc1cc(=O)n(-c2cccc(NC(=O)N(C)C)c2)cc1-c1ccc(F)cc1` [Compound 417], the IC50 in assay [1] was below 50 µM. Also, the concentration for a half-maximal effect (EC50) in assay [2] is below 50 µM.
Turning to `Cn1cc(-c2cn(-c3ccc(OC(F)(F)F)cc3)c(=O)cc2Oc2ccc(F)cc2)cn1` [Compound 410], the IC50 in assay [1] is below 50 µM. Further, the EC50 in assay [2] was below 50 µM.
Compound `O=c1c2c(ccn2C2CC2)c(-c2cn[nH]c2)cn1-c1ccc(OC(F)(F)F)cc1` [Compound 650] showed an IC50 in assay [1] below 50 µM. The EC50 in assay [2] is below 50 µM.
With `COc1cc(=O)n(-c2ccc(OC(F)(F)F)cc2)cc1-c1cnn(C)c1` [Compound 120], the IC50 in assay [1] was below 50 µM. The same compound came in with an EC50 in assay [2] below 50 µM.
`Cc1cc(=O)n(-c2ccc(OC(F)(F)F)cc2)cc1-c1cccc2c1OC(F)(F)O2` [Compound 415]: the 50% inhibitory concentration (IC50) in assay [1] was below 50 µM. Besides, the EC50 in assay [2] was below 50 µM.
In assay [1], `CCOc1ccc(-n2cc(-c3cnn(C)c3)c(OC)cc2=O)c(C)c1` [Compound 162] came in with an IC50 below 50 µM. The compound further registered an EC50 in assay [2] below 50 µM.
For the compound `O=C1CNCCN1CCOc1cc(=O)n(-c2ccc(OC(F)(F)F)cc2)cc1-c1ccc(F)cc1` [Compound 101], in assay [1], the IC50 is 50 to 200 µM. For the same compound, the concentration for a half-maximal effect (EC50) in assay [2] is above 200 µM.
On to `Cc1cc(=O)n(-c2ccc(OC(F)(F)F)cc2)cc1-c1cccc2c1OC(C)(C)O2` [Compound 207], for which, in assay [1], the IC50 is below 50 µM. This compound also showed an EC50 in assay [2] of 50 to 200 µM.
Taken in the same sequence, the figures for `O=c1cc(NCc2ccccn2)ccn1-c1ccc(OC(F)(F)F)cc1` [Compound 547] were below 50 µM and below 50 µM.
The like results for `CCOc1ccc(-n2cc(-c3cnn(C)c3)c(OCCOC)cc2=O)c(C)c1` [Compound 550] were, in that order, below 50 µM and below 50 µM.
Taken in the same sequence, the figures for `COCCn1ccc2c(-c3cnn(C)c3)cn(-c3ccc(OC(F)(F)F)cc3)c(=O)c21` [Compound 651] were below 50 µM and below 50 µM.
As for `CCOc1ccc(-n2cc(-c3cnn(C)c3)c3nn(CC)nc3c2=O)c(C)c1` [Compound 686], in assay [1], the concentration for half-maximal inhibition (IC50) was below 50 µM. For the same compound, the concentration for a half-maximal effect (EC50) in assay [2] was 50 to 200 µM.
The like results for `Cc1cc(=O)[nH]cc1-c1cccc2c1OC(F)(F)O2` [Compound 565] were, in that order, below 50 µM and below 50 µM.
The like results for `Cn1cc(-c2cn(-c3ccc(OC(F)(F)F)cc3)c(=O)c3cccnc23)cn1` [Compound 43] were, in that order, above 200 µM and below 50 µM.
Taken in the same sequence, the figures for `Cc1cc(=O)n(-c2ccc(OC(F)(F)F)cc2)cc1-c1cccc2ncsc12` [Compound 263] were below 50 µM and below 50 µM.
Compound `CCn1nc2c(-c3cnn(C)c3)cn(-c3ccc(OC(F)(F)F)cc3)c(=O)c2n1` [Compound 619] registered an IC50 in assay [1] below 50 µM. This compound also showed an EC50 in assay [2] below 50 µM.
For `Cc1cc(=O)n(-c2ccc(OC(F)(F)F)cc2)cc1-c1ccc(-c2cncs2)cc1` [Compound 206], the IC50 in assay [1] was below 50 µM. This compound also came in with an EC50 in assay [2] of 50 to 200 µM.
Take `CCOc1ccc(Oc2cc(=O)n(-c3ccc(OC(F)(F)F)cc3)cc2-c2cnn(C)c2)cc1C#N` [Compound 157]: the half-maximal inhibitory concentration (IC50) in assay [1] was above 200 µM. In assay [2], the half-maximal effective concentration (EC50) is below 50 µM.
The like results for `O=c1c2[nH]ccc2ccn1-c1ccc(OC(F)(F)F)cc1` [Compound 609] were, in that order, below 50 µM and below 50 µM.
In assay [1], `CCn1ccc2c(-c3cnn(CCO)c3)cn(-c3ccc(OC(F)(F)F)cc3)c(=O)c21` [Compound 615] registered an IC50 below 50 µM. The compound further gave an EC50 in assay [2] below 50 µM.
Turning to `O=c1c2[nH]ccc2c(-c2cn[nH]c2)cn1-c1ccc(OC(F)(F)F)cc1` [Compound 604], the IC50 in assay [1] is below 50 µM. Further, the half-maximal effective concentration (EC50) in assay [2] is below 50 µM.
For the compound `Cn1cc(-c2cn(-c3ccc(OC(F)(F)F)cc3)c(=O)cc2NCc2ccccc2)cn1` [Compound 123], the IC50 in assay [1] is below 50 µM. Also, the half-maximal effective concentration (EC50) in assay [2] was below 50 µM.
In the case of `Cc1cc(=O)n(-c2ccc(OC(F)(F)F)cc2)cc1-c1ccc2c(c1)OC(F)(F)O2` [Compound 208], the IC50 in assay [1] is 50 to 200 µM. In assay [2], this compound displayed a 50% effective concentration (EC50) of 50 to 200 µM.
In assay [1], `Cn1cc(-c2cn(-c3ccc(OC(F)(F)F)cc3)c(=O)c3scnc23)cn1` [Compound 583] gave a half-inhibitory concentration (IC50) below 50 µM. In assay [2], this compound returned a half-maximal effective concentration (EC50) below 50 µM.
`Cc1cc(=O)n(-c2cccc3c2OCO3)cc1-c1ccc(F)cc1` [Compound 184] yielded an IC50 in assay [1] below 50 µM. Further, the half-maximal effective concentration (EC50) in assay [2] lay within 50 to 200 µM.
Taken in the same sequence, the figures for `Cc1cc(=O)n(-c2ccc(OC(F)(F)F)cc2)cc1-c1ccc2nonc2c1` [Compound 259] were below 50 µM and 50 to 200 µM.
In assay [1], `COc1ccc(CNc2cc(=O)n(-c3ccc(OC(F)(F)F)cc3)cc2-c2cnn(C)c2)cc1` [Compound 134] displayed an IC50 below 50 µM. In assay [2], the EC50 was below 50 µM.
In assay [1], `Cn1cc(-c2cn(-c3ccc(OC(F)(F)F)cc3)c(=O)c3[nH]ncc23)cn1` [Compound 588] returned a half-inhibitory concentration (IC50) below 50 µM. For the same compound, in assay [2], the EC50 is above 200 µM.
Consider `CC(C)n1ccc2c(-c3cn[nH]c3)cn(-c3ccc(OC(F)(F)F)cc3)c(=O)c21` [Compound 648], for which the IC50 in assay [1] was below 50 µM. The compound further had an EC50 in assay [2] below 50 µM.
`Cn1ccc2c(-c3cn[nH]c3)cn(-c3ccc(OC(F)(F)F)cc3)c(=O)c21` [Compound 602] showed an IC50 in assay [1] below 50 µM. Besides, the concentration for a half-maximal effect (EC50) in assay [2] was below 50 µM.
Turning to `CCn1ccc2c(=O)n(-c3ccc(OC(F)(F)F)cc3)cc(-c3ccc(F)cc3)c21` [Compound 626], the half-inhibitory concentration (IC50) in assay [1] was below 50 µM. The half-maximal effective concentration (EC50) in assay [2] is below 50 µM.
`Cc1cc(=O)n(-c2ccc(OC(F)(F)F)cc2)cc1-c1ccc2ncsc2c1` [Compound 260] displayed an IC50 in assay [1] below 50 µM. For the same compound, in assay [2], the EC50 is 50 to 200 µM.
Taken in the same sequence, the figures for `Cc1nc2c(=O)n(-c3ccc(OC(F)(F)F)cc3)ccc2o1` [Compound 570] were above 200 µM and above 200 µM.
The like results for `CCn1nnc2c(=O)n(-c3ccc(OC(F)(F)F)cc3)cc(-c3ccc(F)cc3)c21` [Compound 682] were, in that order, below 50 µM and below 50 µM.
The compound `CCn1ccc2c(-c3ccc(F)cc3)c[nH]c(=O)c21` [Compound 595] registered an IC50 in assay [1] of 50 to 200 µM. Besides, in assay [2], the EC50 was below 50 µM.
Taken in the same sequence, the figures for `CCOc1ccc(-n2cc(-c3cn[nH]c3)c3cc[nH]c3c2=O)c(C)c1` [Compound 607] were below 50 µM and below 50 µM.
Taken in the same sequence, the figures for `Cn1cc(C2=CN(c3ccc(OC(F)(F)F)cc3)CC=C2Oc2ccc(C(N)=O)cc2)cn1` [Compound 535] were below 50 µM and below 50 µM.
The like results for `Cc1cc(=O)n(-c2ccc(OC(F)(F)F)cc2)cc1-c1cscn1` [Compound 262] were, in that order, below 50 µM and 50 to 200 µM.
The compound `CCOc1ccc(-n2cc(Br)c3nccnc3c2=O)c(C)c1` [Compound 61] showed a concentration for half-maximal inhibition (IC50) in assay [1] below 50 µM. The compound further came in with an EC50 in assay [2] below 50 µM.
With `Cn1cc(-c2cn(-c3ccc(OC(F)(F)F)cc3)c(=O)cc2NCc2ccc(F)cc2)cn1` [Compound 407], in assay [1], the concentration for half-maximal inhibition (IC50) is below 50 µM. In assay [2], this compound showed an EC50 below 50 µM.
`O=c1c2[nH]nnc2c(-c2ccc(F)cc2)cn1-c1ccc(OC(F)(F)F)cc1` [Compound 681] returned an IC50 in assay [1] below 50 µM. Moreover, in assay [2], the EC50 lay within 50 to 200 µM.
Taken in the same sequence, the figures for `Cn1cc(-c2cn(-c3ccc(OC(F)(F)F)cc3)c(=O)c3nnn(CCF)c23)cn1` [Compound 687] were below 50 µM and below 50 µM.
Taken in the same sequence, the figures for `Cc1cc(=O)n(-c2ccc(OC(F)(F)F)cc2)cc1-c1cn[nH]c1` [Compound 218] were below 50 µM and below 50 µM.
Taken in the same sequence, the figures for `Cn1cc(-c2cn(-c3ccc(OC(F)(F)F)cc3)c(=O)cc2NCc2cccnc2)cn1` [Compound 160] were below 50 µM and 50 to 200 µM.
Turning to `Cc1cc(=O)n(-c2ccccc2NC(N)=O)cc1-c1ccc(F)cc1` [Compound 557], the IC50 in assay [1] is below 50 µM. Moreover, in assay [2], the EC50 was below 50 µM.
In assay [1], `CCOc1ccc(-n2cc(-c3cnn(C)c3)c3nccnc3c2=O)c(C)c1` [Compound 63] displayed an IC50 below 50 µM. In addition, in assay [2], the half-maximal effective concentration (EC50) was below 50 µM.
Compound `Cn1cc(-c2c[nH]c(=O)cc2NCc2ccccn2)cn1` [Compound 544] yielded a concentration for half-maximal inhibition (IC50) in assay [1] below 50 µM. In assay [2], the EC50 lay within 50 to 200 µM.
As for `O=c1c2nccnc2c(-c2cn[nH]c2)cn1-c1ccc(OC(F)(F)F)cc1` [Compound 400], the IC50 in assay [1] is below 50 µM. The compound further displayed a concentration for a half-maximal effect (EC50) in assay [2] below 50 µM.
For `CC(C)NC(=O)n1cc(-c2ccc(=O)n(-c3ccccc3)c2)cn1` [Compound 75], the half-inhibitory concentration (IC50) in assay [1] fell in the range of 50 to 200 µM. This compound registered an EC50 in assay [2] of 50 to 200 µM.
On to `CCOc1ccc(-n2cc(-c3cn[nH]c3)c(C)cc2=O)c(C)c1` [Compound 219], for which the half-inhibitory concentration (IC50) in assay [1] is above 200 µM. Also, the 50% effective concentration (EC50) in assay [2] is 50 to 200 µM.
`CCOC(=O)n1cc(-c2ccc(=O)n(-c3ccccc3)c2)cn1` [Compound 73] displayed a 50% inhibitory concentration (IC50) in assay [1] above 200 µM. This compound had an EC50 in assay [2] below 50 µM.
The like results for `Cc1cn(C)c2c(=O)n(-c3ccc(OC(F)(F)F)cc3)cc(-c3ccc(F)cc3)c12` [Compound 49] were, in that order, below 50 µM and below 50 µM.

The record behind these values is patent US10233195B2, “Anti-fibrotic pyridinones” (InterMune, Inc., priority 2014, dated 2019).
